Laboratory results reported in patent US10041937B2, “Macrophage identification agent, and identification method, sorting method, evaluation method, screening method and kit using the macrophage identifier agent” (CANON KABUSHIKI KAISHA, priority 2013, dated 2018).

Tests used:
[1] = tested on: M1 macrophages and M2 macrophages differentiated from RAW264.7 cells; assay: Identification of macrophage subtypes differentiated from mouse cell line RAW264.7; type: cell-based; details: RAW264.7 derived M1 and M2
Method: The subtypes were identified by using the compound (1) in the same manner as in Example 1 except that the macrophage subtypes differentiated from the mouse bone marrow cells were changed to macrophage subtypes differentiated from a cell line established from mouse monocytic leukemia.
The culture of subtypes was performed with reference to NPL 9. Specifically, RAW264.7 cells purchased from American Type Culture Collection, that is, a cell line established from mouse monocytic leukemia, were subcultured several times, and the resultant cells were dispersed to a concentration of 3.3×10^4/mL in a D-MEM containing 10% FBS, 1% P/S and 1% MEM-NEAA, and 3.3×10^5 cells were seeded in a 100 mm dish. The cells were grown by incubation performed in the presence of 5% CO2 at 37° C. After 2 to 4 days, it was confirmed that an area of about to 70% of the bottom of the dish had been covered by the cells, the medium was then exchanged, and by adding 200 ng of interferon-γ and 1 μg of polyliposaccharide (both manufactured by Pepro Tech) to the medium, the cells were differentiated to the subtype M1. Besides, by adding 100 ng of IL-4, the cells were differentiated to the subtype M2. […]
A histogram was prepared by plotting fluorescence intensity obtained in the FITC channel on the abscissa and plotting the number of cells at each fluorescence intensity on the ordinate, which is shown in FIG. 9.

[2] = tested on: M1 macrophages and M2 macrophages differentiated from THP-1 cells; assay: Identification of macrophage subtypes differentiated from human cell line THP-1; type: cell-based
Method: The fluorescent signals derived from the compounds (3), (4), (6), (7), (9), (11) to (13), (15), (17), (19) to (26), (28), (30) to (33), (35), (36), (38), (42) to (45), (48) to (62), (65), (67), (74) to (76), (82), (83) and (85) and the comparative compounds (1) and (2) were measured in channels suitable to the respective compounds. Histograms were prepared by plotting fluorescence intensities obtained in the respective channels on the abscissa and plotting the numbers of cells at each fluorescence intensity on the ordinate. A difference between a fluorescence intensity (FM1) at a peak top of the histogram of the M1 macrophage and a fluorescence intensity (FM2) at a peak top of the histogram of the M2 macrophage is divided by a sum of a peak width (WM1) of the histogram of the M1 macrophage and a peak width (WM2) of the histogram of the M2 macrophage, so as to obtain a resolution R, which was used as an index of the identification ability for a subtype (see the following expression (1)). Resolution R=|FM1−FM2|/(WM1+WM2) Expression (1)
Based on the thus obtained values of the resolution R, the identification abilities for the subtypes of the compounds (3), (4), (6), (7), (9), (11) to (13), (15), (17), (19) to (26), (28), (30) to (33), (35), (36), (38), (42) to (45), (48) to (62), (65), (67), (74) to (76), (82), (83) and (85) and the comparative compounds (1) and (2) were evaluated as any of A to C according to the following criteria, and if the resolution R was 0.15 or more, the compound was determined to be good in the subtype identification.
The subtypes were identified by using the compound (1) in the same manner as in Example 1 except that the macrophage subtypes differentiated from the mouse bone marrow cells were changed to macrophage subtypes differentiated from a cell line established from human acute monocytic leukemia.
The culture of subtypes was performed with reference to NPL 10. Specifically, THP-1 cells purchased from JCRB Cell Bank of National Institute of Biomedical Innovation, that is, a cell line established from human acute monocytic leukemia, were subcultured several times, and the resultant cells were dispersed to a concentration of 5.0×10^5/mL in an RPMI1640 containing 10% FBS and 1% P/S, and 5.0×10^6 cells were seeded in a 100 mm dish. The monocytes were differentiated into macrophages by incubating the resultant in the presence of 5% CO2 at 37° C. for 2 days with 500 ng of PMA added thereto. After exchanging the medium, by adding 200 ng of interferon-γ and 1 μg of polyliposaccharide (both manufactured by Pepro Tech) to the medium, the cells were differentiated to the subtype M1. Besides, by adding 200 ng of IL-4 and IL-13, the cells were differentiated to the subtype M2. After incubation performed in the presence of 5% CO2 at 37° C. for 24 hours, the resultant was rinsed with PBS, and PBS containing 0.25% trypsin and 1 mM EDTA (ethylenediaminetetraacetic acid) was used for collecting, from the dish, the macrophages having been differentiated to the subtypes M1 and M2.
Specifically, fluorescent signals derived from the compounds (1) (3) (4) (12) and (15) were measured by using the channels which are appropriate for each of the compounds and the identification abilities for the subtypes of the compounds were evaluated based on the values of the resolution R.

[3] = tested on: mixture of the M1 macrophages and the M2 macrophages; assay: Sorting of subtypes from a mixture of M1 and M2 macrophages with an FACS apparatus; type: cell-based, mouse; details: compound 1 μM

## CCOC(=O)CCN1C(=O)/C(=C\c2ccc3c(c2)C2CCCC2N3CC)SC1=S (centres unmarked) [compound (1)]
[1]
  subtype more strongly stained: the M1 macrophages were stained more strongly than the M2 macrophages
[2]; M1 vs M2 macrophages differentiated from THP-1 cells, channel listed per compound (Table 6)
  Resolution ratio R: 0.409
[2]; M1 vs M2 macrophages differentiated from THP-1 cells, class based on resolution R (Table 6)
  Evaluation of macrophage subtype identification: B (the compound is good in the subtype identification (namely, the resolution R is 0.15 or more and less than 0.5))
[2]; THP-1-derived M1 macrophages, fluorescence intensity peak by flow cytometry in the channel listed per compound (Table 6)
  Peak position of M1 macrophage: 58.1
[2]; THP-1-derived M2 macrophages, fluorescence intensity peak by flow cytometry in the channel listed per compound (Table 6)
  Peak position of M2 macrophage: 33.4
[2]; subtype strongly stained, THP-1-derived macrophages (Table 6)
  Selectivity: M1
[3]; FACS apparatus
  sorting of identified M1 and M2 macrophages: could be each sorted with an FACS apparatus
[3]; mixed M1 and M2 macrophages
  subtype more strongly stained: stain the M1 macrophages more strongly than the M2 macrophages
